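Growth conditions: 96-well plates. Treatment: test compound, 48 hours, 5 concentrations. Analysis: linear interpolation between bracketing concentrations; unreached endpoints set to highest concentration. The concentration for full growth arrest is given as TGI.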
Experiments:
Assay in all cases: NCI anticancer screen, dose series, 48 h
MDA-N = test system: MDA-N
DLD-1 colon = test system: DLD-1 colon
XF 498 CNS = test system: XF 498 CNS

Structure (SMILES): O=c1oc2cc(O)ccc2c(O)c1C(c1ccccc1)c1c(O)c2ccc(O)cc2oc1=O
- TGI (MDA-N): > 100 µM

Structure (SMILES): O=C(O)C(Cl)(Cl)Cl
- TGI (DLD-1 colon): > 100 µM
- TGI (XF 498 CNS): > 100 µM
